Eight compounds from ChEMBL document CHEMBL4831527, “Structure-Based Design and Discovery of Pyridyl-Bearing Fused Bicyclic HIV-1 Inhibitors: Synthesis, Biological Characterization, and Molecular Modeling Studies” (J Med Chem, 2021) can be followed below.

Active and inactive are the calls of the source. Some results are limits rather than exact numbers.

The term CLint scaled denotes the rate of metabolic loss divided by the concentration. As a reminder, the EC50 is the concentration at which the effect is half-maximal. The term IC50 denotes the point on the concentration scale where inhibition reaches its midpoint. What is called half-life is the time needed for the level to fall by half in the phase considered. As usually defined, the CC50 is the concentration at which the toxic effect on the cells reaches its halfway point.

The nature of one data set: in vitro. The following applies: human, liver microsomes. A general note: Liver microsomes are vesicles of endoplasmic reticulum, rich in cytochrome P450 enzymes.
Data set [1] relates to Human immunodeficiency virus 1. As to the kind of experiment: Antiviral activity against HIV1 harboring reverse transcriptase F227L/V106A double mutant infected in human MT4 cells assessed as protection against virus-induced cytopathic effect incubated for 5 days by MTT assay. It counts as functional, organism-based. Particulars: Human immunodeficiency virus 1, MT4, 120 h. For orientation: Damage to the host cells serves as the signal in cytopathic effect assays.

The test system of data set [2] is Human immunodeficiency virus 1. The data set is described as follows: Antiviral activity against HIV1 harboring reverse transcriptase E138K mutant infected in human MT4 cells assessed as protection against virus-induced cytopathic effect incubated for 5 days by MTT assay. It counts as functional, organism-based. Particulars: Human immunodeficiency virus 1, MT4, 120 h.

The subject of data set [3] is Human immunodeficiency virus 2. As to the kind of experiment: Antiviral activity against HIV2 ROD infected in human MT4 cells assessed as protection against virus-induced cytopathogenicity after 5 days by MTT assay. It counts as functional, organism-based. The following applies: time 5.0 day.
Data set [4] is described as follows: Selectivity index, ratio of CC50 for mock-infected human MT4 cells to EC50 for HIV1 3B infected in human MT4 cells. It counts as toxicity, cell-based. The following applies: MT4 cells (mock-infected and HIV1 3B infected), read-out: Ratio CC50/EC50.
The target in data set [5] is Human immunodeficiency virus type 1 reverse transcriptase (Human immunodeficiency virus 1, UniProt Q72547). The data set is described as follows: Inhibition of wild type HIV1 p66/p51 reverse transcriptase using poly(rA) as template, oligo(dT)16 as primer and RNA/DNA as substrate measured after 40 mins by PICOGreen-dye based spectrofluorimetry analysis.
Data set [6] concerns Human immunodeficiency virus 1. As to the kind of experiment: Antiviral activity against HIV1 harboring reverse transcriptase Y181C mutant infected in human MT4 cells assessed as protection against virus-induced cytopathic effect incubated for 5 days by MTT assay. It counts as functional, organism-based. The following applies: Human immunodeficiency virus 1, MT4, 120 h.
In data set [7] the test system is Human immunodeficiency virus 1. The data set is described as follows: Potency index, ratio of EFV EC50 to test compound EC50 for antiviral activity against HIV1 RES056 infected in human MT4 cells. It counts as functional.
For data set [8], the system named is Human immunodeficiency virus 1. The data set is described as follows: Antiviral activity against HIV1 RES056 infected in human MT4 cells assessed as protection against virus-induced cytopathic effect incubated for 5 days by MTT assay. It counts as functional, organism-based. Particulars: Human immunodeficiency virus 1, RES056, MT4, 120 h.
Data set [9] has as its system Human immunodeficiency virus 1. As to the kind of experiment: Antiviral activity against HIV1 harboring reverse transcriptase K103N mutant infected in human MT4 cells assessed as protection against virus-induced cytopathic effect incubated for 5 days by MTT assay. It counts as functional, organism-based. Particulars: Human immunodeficiency virus 1, MT4, 120 h.
A short description of data set [10]: Selectivity index, ratio of CC50 for mock-infected human MT4 cells to EC50 for HIV1 RES056 infected in human MT4 cells. It counts as toxicity, cell-based. Particulars: MT4 cells (mock-infected and HIV1 RES056 infected), read-out: Ratio CC50/EC50.
Data set [11] in a line: Half life in human liver microsomes at 1 uM in presence of NADPH by LC-MS/MS analysis. It counts as ADME, Microsome.
Data set [12] concerns Human immunodeficiency virus 1. As to the kind of experiment: Antiviral activity against HIV1 3B infected in human MT4 cells assessed as protection against virus-induced cytopathic effect incubated for 5 days by MTT assay. Particulars: Human immunodeficiency virus 1, 3B, MT4, 120 h. It counts as functional, organism-based.
Data set [13] can be described thus: Cytotoxicity against mock-infected human MT4 cells assessed as reduction in cell viability measured after 5 days by MTT assay. It counts as cell-based. The following applies: time 5 day. For orientation: Tetrazolium dyes change colour on reduction, which living cells bring about.
For data set [14], the system named is Human immunodeficiency virus 1. The data set is described as follows: Antiviral activity against HIV1 harboring reverse transcriptase Y188L mutant infected in human MT4 cells assessed as protection against virus-induced cytopathic effect incubated for 5 days by MTT assay. Particulars: Human immunodeficiency virus 1, MT4, 120 h. It counts as functional, organism-based.

The test system of data set [15] is Human immunodeficiency virus 1. The data set is described as follows: Antiviral activity against HIV1 harboring reverse transcriptase L100I mutant infected in human MT4 cells assessed as protection against virus-induced cytopathic effect incubated for 5 days by MTT assay. It counts as functional, organism-based. The following applies: Human immunodeficiency virus 1, MT4, 120 h.

For data set [16], the system named is Human immunodeficiency virus 1. As to the kind of experiment: Potency index, ratio of ETR EC50 to test compound EC50 for antiviral activity against HIV1 harboring reverse transcriptase E138K mutant infected in human MT4 cells. It counts as functional.

As for `O=C(O)Cc1ccccc1Nc1c(Cl)cccc1Cl` [DICLOFENAC], in “in vitro”, the CLint scaled at 1 h, 1 µM was 310 mL/min/kg.
For the compound `Cc1cc(/C=C/C#N)cc(C)c1Oc1nc(Nc2ccc(C#N)cc2)nn2cccc12`, the EC50 in data set [1] is more than 41300 nM; in data set [2] it was more than 41300 nM; in data set [6], 19.7 nM; in data set [8] it was 61.1 nM; in [9] it was 4.8 nM; in [12], 12.6 nM. For the same compound, the figures for the EC50 in data set [14] and in data set [15] were more than 41300 nM and 7.8 nM, respectively. The compound also had a CLint scaled at 1 h, 1 µM in “in vitro” of 28.8 mL/min/kg. Also, the outcome in data set [3] was inactive. The selectivity ratio worked out at 395 in data set [4] and 81 in [10]. The midpoint of inhibition in [5], the IC50, lay at 43 nM. Moreover, the “Ratio EC50” value in data set [7] stood at 2.4. Besides, the half-life at 1 µM in data set [11] was determined as 43.3 min. Also, the CC50 at 120 h in [13] was found to be 5000 nM.
In turn, `Cc1cc(/C=C/C#N)cc(C)c1Nc1ccnc(Nc2ccc(C#N)cc2)n1` [RILPIVIRINE] returned a CLint scaled at 1 h, 1 µM in “in vitro” of 97.6 mL/min/kg. Besides, the half-life at 1 µM in data set [11] is 12.8 min.
Regarding `C[C@]12CC[C@H]3[C@@H](CCC4=CC(=O)CC[C@@]43C)[C@@H]1CC[C@@H]2O` [TESTOSTERONE], the CLint scaled at 1 h, 1 µM in the data set “in vitro” was 126 mL/min/kg.
For `Cc1cc(C#N)cc(C)c1Oc1nc(Nc2ccc(C#N)cc2)nc2c1ccn2CC(=O)N1CCOCC1`, the “Ratio EC50” value in data set [16] came to 2.2. Also, the EC50 in data set [1] was 146 nM; in data set [2] it was 6.8 nM; in data set [6], 148 nM; in data set [8], 782 nM; in data set [9], 5.9 nM; in [12], 7.7 nM. For the same compound, the figures for the EC50 in data set [14] and in [15] were 56.7 nM and 154 nM, respectively. Further, in the data set “in vitro”, the CLint scaled at 1 h, 1 µM came out at 397 mL/min/kg. Also, the outcome in [3] was inactive. The selectivity ratio in data set [4] was determined as 297; in [10], 3. Moreover, in [5], the IC50 is 155 nM. Also, the half-life at 1 µM in data set [11] amounted to 3.1 min. For the same compound, the CC50 at 120 h in data set [13] was found to be 2300 nM.
For the compound `Cc1cc(/C=C/C#N)cc(C)c1Oc1nc(Nc2ccc(C#N)nc2)nc2c1CCCC2`, the EC50 was more than 8830 nM in data set [1]; more than 8830 nM in [2]; 34.8 nM in data set [6]; 58.8 nM in data set [8]; 7.7 nM in data set [9]; 7.6 nM in data set [12]. Further, the EC50 is more than 8830 nM in data set [14] and 12.8 nM in data set [15]. This compound came in with a CLint scaled at 1 h, 1 µM in the data set “in vitro” of 47 mL/min/kg. For the same compound, in data set [3], the outcome was inactive. Moreover, the selectivity ratio in data set [4] turned out to be 1160; in [10], 150. For the same compound, inhibition in [5] was half-maximal at 147 nM (IC50). Further, the “Ratio EC50” value in [7] was 2.4. Further, the half-life at 1 µM in data set [11] is 26.5 min. For the same compound, the CC50 at 120 h in data set [13] was 8800 nM.
Consider `Cc1cc(/C=C/C#N)cc(C)c1Oc1nc(Nc2ccc(C#N)cc2)nc2c1CCCC2`, for which the EC50 in data set [1] is 95.3 nM; in [2], 61.3 nM; in [6] it was 40.9 nM; in data set [8], 68.2 nM; in [9] it was 17 nM; in [12] it was 14 nM. Also, the EC50 in data set [14] turned out to be 77.9 nM; in data set [15] it was 18 nM. For the same compound, the CLint scaled at 1 h, 1 µM in “in vitro” came out at 45.5 mL/min/kg. Moreover, in data set [3], the result was inactive. For the same compound, the selectivity ratio in data set [4] was 513; in data set [10] it was 105. For the same compound, half-maximal inhibition in [5] (IC50) required 119 nM. In addition, in data set [7], the “Ratio EC50” value is listed as 2.1. In addition, the half-life at 1 µM in [11] was 27.4 min. For the same compound, in data set [13], the CC50 at 120 h is 7200 nM.
On to `Cc1cc(C#N)cc(C)c1Oc1nc(Nc2ccc(C#N)nc2)nn2cccc12`, for which the EC50 in data set [1] was more than 69100 nM; in [2], more than 69100 nM; in data set [6] it was 171 nM; in data set [8], 1220 nM; in data set [9], 11.9 nM; in data set [12] it was 7 nM. For the same compound, the results for the EC50 in data set [14] and in [15] were more than 69100 nM and 204 nM, respectively. For the same compound, in data set [3], the result was inactive. The figures for the selectivity ratio in data set [4] and in [10] were 9830 and 57, respectively. Also, in [5], the IC50 is 14 nM. Besides, in data set [13], the CC50 at 120 h worked out at 69100 nM.
